Where two headings read alike, the source gives them in different places. Bridge positions count the residues as written; N and C are the ends. Square brackets hold non-standard residues; d marks the D form. Peptide text beside a SMILES is read from it. Hyp = O=C(O)[C@@H]1C[C@@H](O)CN1; R8 = C=CCCCCCC[C@@](C)(N)C(=O)O; S5 = C=CCCC[C@](C)(N)C(=O)O; Nle = CCCC[C@H](N)C(=O)O
Legend:
S. aureus = assay type: cell-based, Staphylococcus aureus
Procedure, shortened: (§1)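 Microdilution MIC test in polyanion-depleted MHB, with a final inoculum of 5×10^5 CFU/ml and 20-24 h incubation at 37° C.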

human red blood cells = assay type: cell-based
Procedure, shortened: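 Washed human RBCs as 1% (v/v) suspension in phosphate-buffered saline incubated 1 h at 37° C with serially diluted peptides. Hemoglobin release in supernatant measured spectrophotometrically (570 nm), % hemolysis relative to untreated and 1% Triton-X100 controls; MHC defined as concentration giving less than 1% release.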

B. cereus = assay type: cell-based, Bacillus cereus
Procedure, shortened: as §1

E. coli = assay type: cell-based, Escherichia coli
Procedure, shortened: as §1

P. aeruginosa = assay type: cell-based, Pseudomonas aeruginosa
Procedure, shortened: as §1

| SMILES | MIC S. aureus (S. aureus) [mg/L] | MIC B. cereus (B. cereus) [mg/L] | MIC E. coli (E. coli) [mg/L] | MIC P. aeruginosa (P. aeruginosa) [mg/L] | % Hemolysis at 25 μg/ml (human red blood cells; red cells of human, 1 h, 25) [%] | % Hemolysis at 25 μg/ml (human red blood cells) |
| --- | --- | --- | --- | --- | --- | --- |
| CCCC[C@H](NC(=O)[C@]1(C)CCCC=CCCC[C@](C)(NC(=O)[C@H](C)NC(=O)[C@H](CCCCN)NC(=O)CNC(=O)[C@H](Cc2ccccc2)NC(=O)[C@H](CCCCN)NC(=O)[C@H](CCCCN)NC(=O)[C@H](C)NC(=O)[C@H](CO)NC(=O)[C@H](Cc2c[nH]cn2)NC(=O)[C@H](CC(C)C)NC(=O)[C@H](CCCCN)NC(=O)[C@H](CCCCN)NC(=O)CNC(=O)[C@@H](NC(=O)CN)[C@@H](C)CC)C(=O)N[C@@H](C(C)C)C(=O)NCC(=O)N[C@@H](CCC(=O)O)C(=O)N1)C(=O)N[C@@H](CC(N)=O)C(=O)N[C@@H](CO)C(N)=O [Mag(i + 4)15(F5K), GIGKKLHSAKKFGRAXVGEXBNS] (H-GIGKKLHSAKKFGKA[S5]VGE[S5][Nle]NS-NH2; staple 16-20; N-terminus and C-terminus assumed) | >50 | >50 | 3.1 | 12.5 | 1.7 |  |
| CCCC[C@H](NC(=O)[C@]1(C)CCCC=CCCC[C@](C)(NC(=O)[C@H](C)NC(=O)[C@H](CCCCN)NC(=O)CNC(=O)[C@H](Cc2ccccc2)NC(=O)[C@H](CCCCN)NC(=O)[C@H](CCCCN)NC(=O)[C@H](Cc2c[nH]cn2)NC(=O)[C@H](CO)NC(=O)[C@]2(C)CCCC=CCCC[C@](C)(NC(=O)[C@H](CCCCN)NC(=O)CN)C(=O)N[C@@H](CCCCN)C(=O)N[C@@H](Cc3ccccc3)C(=O)N[C@@H](CC(C)C)C(=O)N2)C(=O)N[C@@H](C(C)C)C(=O)NCC(=O)N[C@@H](CCC(=O)O)C(=O)N1)C(=O)N[C@@H](CC(N)=O)C(=O)N[C@@H](CO)C(N)=O [Mag(i + 4)2, 15(I2X, A9H)] (H-GK[S5]KFL[S5]SHKKFGKA[S5]VGE[S5][Nle]NS-NH2; staple 3-7, 16-20) | 12.5 | 6.2 | 3.1 | 6.2 | 0.6 | completely eliminated |
| CC(C)C[C@H](NC(=O)[C@H](Cc1ccc(O)cc1)NC(=O)[C@H](Cc1c[nH]cn1)NC(=O)[C@@H](NC(=O)[C@H](CC(C)C)NC(=O)[C@]1(C)CCCC=CCCC[C@](C)(NC(=O)[C@H](Cc2c[nH]cn2)NC(=O)[C@H](CCCCN)NC(=O)CNC(=O)[C@@H](NC(=O)[C@H](Cc2c[nH]cn2)NC(=O)[C@H](C)NC(=O)[C@H](C)NC(=O)[C@H](CCCCN)NC(=O)[C@H](CCCCN)NC(=O)[C@]2(C)CCCC=CCCC[C@](C)(NC(=O)CN)C(=O)NCC(=O)N[C@@H](CO)C(=O)N[C@@H](Cc3ccccc3)C(=O)N2)C(C)C)C(=O)NCC(=O)N[C@@H](CCCCN)C(=O)N[C@@H](C)C(=O)N1)[C@@H](C)O)C(N)=O [Pleu(i + 4)1, 15] (H-G[S5]GSF[S5]KKAAHVGKH[S5]GKA[S5]LTHYL-NH2; staple 2-6, 16-20; N-terminus assumed) | 1.6 | 3.1 | 1.6 | 1.6 | 88.2 |  |
| CCCC[C@H](NC(=O)[C@@H](NC(=O)[C@H](CCC(=O)O)NC(=O)CNC(=O)[C@@H](NC(=O)[C@H](Cc1ccccc1)NC(=O)[C@H](C)NC(=O)[C@H](CCCCN)NC(=O)CNC(=O)[C@H](Cc1ccccc1)NC(=O)[C@]1(C)CCCC=CCCCCCC[C@@](C)(NC(=O)CNC(=O)[C@@H](NC(=O)CN)[C@@H](C)CC)C(=O)N[C@@H](Cc2ccccc2)C(=O)N[C@@H](CC(C)C)C(=O)N[C@@H](Cc2c[nH]cn2)C(=O)N[C@@H](CO)C(=O)N[C@@H](C)C(=O)N[C@@H](CCCCN)C(=O)N1)C(C)C)[C@@H](C)CC)C(=O)N[C@@H](CC(N)=O)C(=O)N[C@@H](CO)C(N)=O [Mag(i + 7)3] (H-GIG[R8]FLHSAK[S5]FGKAFVGEI[Nle]NS-NH2; staple 4-11 (inferred); N-terminus and C-terminus assumed) | 12.5 | 12.5 | 6.2 | 25 | 52.5 |  |

More lines, main results first:

| MIC S. aureus (S. aureus) [mg/L] | MIC B. cereus (B. cereus) [mg/L] | MIC E. coli (E. coli) [mg/L] | MIC P. aeruginosa (P. aeruginosa) [mg/L] | SMILES | % Hemolysis at 25 μg/ml (human red blood cells; red cells of human, 1 h, 25) [%] | % Hemolysis at 25 μg/ml (human red blood cells) |
| --- | --- | --- | --- | --- | --- | --- |
| >50 | >50 | 25 | >50 | CCCC[C@H](NC(=O)[C@]1(C)CCCC=CCCC[C@](C)(NC(=O)[C@H](C)NC(=O)[C@H](CCCCN)NC(=O)[C@H](CCC(=O)O)NC(=O)[C@H](Cc2ccccc2)NC(=O)[C@H](CCCCN)NC(=O)[C@H](CCCCN)NC(=O)[C@H](C)NC(=O)[C@H](CO)NC(=O)[C@H](Cc2c[nH]cn2)NC(=O)[C@H](CC(C)C)NC(=O)[C@H](Cc2ccccc2)NC(=O)[C@H](CCCCN)NC(=O)CNC(=O)[C@@H](NC(=O)CN)[C@@H](C)CC)C(=O)N[C@@H](C(C)C)C(=O)NCC(=O)N[C@@H](CCC(=O)O)C(=O)N1)C(=O)N[C@@H](CC(N)=O)C(=O)N[C@@H](CO)C(N)=O [Mag(i + 4)15(G13E), GIGKFLHSAKKFEKAXVGEXBNS] (H-GIGKFLHSAKKFEKA[S5]VGE[S5][Nle]NS-NH2; staple 16-20) | 2.2 |  |
| >50 | >50 | 50 | >50 | CCCC[C@H](NC(=O)[C@]1(C)CCCC=CCCC[C@](C)(NC(=O)[C@H](C)NC(=O)[C@H](CCCCN)NC(=O)CNC(=O)[C@H](Cc2ccccc2)NC(=O)[C@H](CCCCN)NC(=O)[C@H](CCCCN)NC(=O)[C@H](C)NC(=O)[C@H](CO)NC(=O)[C@H](Cc2c[nH]cn2)NC(=O)[C@H](CC(C)C)NC(=O)[C@H](Cc2ccccc2)NC(=O)[C@H](CCCCN)NC(=O)CNC(=O)[C@@H](NC(=O)CN)[C@@H](C)CC)C(=O)N[C@@H](CCC(=O)O)C(=O)NCC(=O)N[C@@H](CCC(=O)O)C(=O)N1)C(=O)N[C@@H](CC(N)=O)C(=O)N[C@@H](CO)C(N)=O [Mag(i + 4)15(V17E), GIGKFLHSAKKFGKAXEGEXBNS] (H-GIGKFLHSAKKFGKA[S5]EGE[S5][Nle]NS-NH2; staple 16-20) | 0.5 |  |
| 3.1 | 3.1 | 1.6 | 6.2 | CCCC[C@H](NC(=O)[C@]1(C)CCCC=CCCC[C@](C)(NC(=O)[C@H](C)NC(=O)[C@H](CCCCN)NC(=O)[C@H](C)NC(=O)[C@H](Cc2ccccc2)NC(=O)[C@H](CCCCN)NC(=O)[C@H](CCCCN)NC(=O)[C@H](C)NC(=O)[C@H](CO)NC(=O)[C@H](Cc2c[nH]cn2)NC(=O)[C@H](CC(C)C)NC(=O)[C@H](Cc2ccccc2)NC(=O)[C@H](CCCCN)NC(=O)CNC(=O)[C@@H](NC(=O)CN)[C@@H](C)CC)C(=O)N[C@@H](C(C)C)C(=O)NCC(=O)N[C@@H](CCC(=O)O)C(=O)N1)C(=O)N[C@@H](CC(N)=O)C(=O)N[C@@H](CO)C(N)=O [Mag(i + 4)15(G13A), GIGKFLHSAKKFAKAXVGEXBNS] (H-GIGKFLHSAKKFAKA[S5]VGE[S5][Nle]NS-NH2; staple 16-20) | 20.5 |  |
| 25 | 6.2 | 3.1 | 12.5 | CCCC[C@H](NC(=O)[C@]1(C)CCCC=CCCC[C@](C)(NC(=O)[C@H](C)NC(=O)[C@H](CCCCN)NC(=O)CNC(=O)[C@H](Cc2ccccc2)NC(=O)[C@H](CCCCN)NC(=O)[C@H](CCCCN)NC(=O)[C@H](C)NC(=O)[C@H](CO)NC(=O)[C@H](CCC(=O)O)NC(=O)[C@H](CC(C)C)NC(=O)[C@H](Cc2ccccc2)NC(=O)[C@H](CCCCN)NC(=O)CNC(=O)[C@@H](NC(=O)CN)[C@@H](C)CC)C(=O)N[C@@H](C(C)C)C(=O)NCC(=O)N[C@@H](CCC(=O)O)C(=O)N1)C(=O)N[C@@H](CC(N)=O)C(=O)N[C@@H](CO)C(N)=O [Mag(i + 4)15(H7E), GIGKFLESAKKFGKAXVGEXBNS] (H-GIGKFLESAKKFGKA[S5]VGE[S5][Nle]NS-NH2; staple 16-20) | 2.9 |  |
| >50 | 25 | 3.1 | 25 | CCCC[C@H](NC(=O)[C@]1(C)CCCC=CCCC[C@](C)(NC(=O)[C@H](C)NC(=O)[C@H](CCCCN)NC(=O)[C@@H]2CCCN2C(=O)[C@H](Cc2ccccc2)NC(=O)[C@H](CCCCN)NC(=O)[C@H](CCCCN)NC(=O)[C@H](C)NC(=O)[C@H](CO)NC(=O)[C@H](Cc2c[nH]cn2)NC(=O)[C@H](CC(C)C)NC(=O)[C@H](Cc2ccccc2)NC(=O)[C@H](CCCCN)NC(=O)CNC(=O)[C@@H](NC(=O)CN)[C@@H](C)CC)C(=O)N[C@@H](C(C)C)C(=O)NCC(=O)N[C@@H](CCC(=O)O)C(=O)N1)C(=O)N[C@@H](CC(N)=O)C(=O)N[C@@H](CO)C(N)=O [Mag(i + 4)15(G13P), GIGKFLHSAKKFPKAXVGEXBNS] (H-GIGKFLHSAKKFPKA[S5]VGE[S5][Nle]NS-NH2; staple 16-20) | 2.0 |  |
| >50 | >50 | 12.5 | 50 | CCCC[C@H](NC(=O)[C@]1(C)CCCC=CCCC[C@](C)(NC(=O)[C@H](C)NC(=O)[C@H](CCCCN)NC(=O)[C@@H]2C[C@@H](O)CN2C(=O)[C@H](Cc2ccccc2)NC(=O)[C@H](CCCCN)NC(=O)[C@H](CCCCN)NC(=O)[C@H](C)NC(=O)[C@H](CO)NC(=O)[C@H](Cc2c[nH]cn2)NC(=O)[C@H](CC(C)C)NC(=O)[C@H](Cc2ccccc2)NC(=O)[C@H](CCCCN)NC(=O)CNC(=O)[C@@H](NC(=O)CN)[C@@H](C)CC)C(=O)N[C@@H](C(C)C)C(=O)NCC(=O)N[C@@H](CCC(=O)O)C(=O)N1)C(=O)N[C@@H](CC(N)=O)C(=O)N[C@@H](CO)C(N)=O [Mag(i + 4)15(G13&), GIGKFLHSAKKF&KAXVGEXBNS] (H-GIGKFLHSAKKF[Hyp]KA[S5]VGE[S5][Nle]NS-NH2; staple 16-20) | 1.3 |  |

— patent US20200231638A1, “STABILIZED ANTI-MICROBIAL PEPTIDES” (priority 2015, published 2020)
